Assay results as given in PubChem BioAssay (NCI).
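Grown in 96-well plates, cells were treated for 48 hours with each compound at five concentrations. Insufficient inhibition: endpoint recorded as highest concentration tested. GI50 is the concentration that inhibits growth by half. TGI: concentration producing complete growth inhibition.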

What was measured:
Experiment in all cases: NCI tumour cell line growth inhibition, 48 h
BT-549 breast = tested on: BT-549 breast
COLO 205 colon = tested on: COLO 205 colon
HOP-92 NSCLC = tested on: HOP-92 NSCLC
MALME-3M melanoma = tested on: MALME-3M melanoma
OVCAR-5 ovarian = tested on: OVCAR-5 ovarian
PC-3 prostate = tested on: PC-3 prostate
T-47D breast = tested on: T-47D breast
TK-10 renal = tested on: TK-10 renal
UO-31 renal = tested on: UO-31 renal
SR leukemia = tested on: SR leukemia

| Structure (SMILES) | TGI (BT-549 breast) [µM] | TGI (COLO 205 colon) [µM] | TGI (HOP-92 NSCLC) [µM] | TGI (MALME-3M melanoma) [µM] | TGI (OVCAR-5 ovarian) [µM] | TGI (PC-3 prostate) [µM] | TGI (T-47D breast) [µM] | TGI (TK-10 renal) [µM] | TGI (UO-31 renal) [µM] | TGI (SR leukemia) [µM] | GI50 (COLO 205 colon) [µM] | GI50 (HOP-92 NSCLC) [µM] | GI50 (MALME-3M melanoma) [µM] | GI50 (OVCAR-5 ovarian) [µM] | GI50 (PC-3 prostate) [µM] | GI50 (TK-10 renal) [µM] | GI50 (UO-31 renal) [µM] |
| --- | --- | --- | --- | --- | --- | --- | --- | --- | --- | --- | --- | --- | --- | --- | --- | --- | --- |
| N#CC1(C#N)C2CCCCC23OC(=N)C1(C#N)C(c1ccco1)O3 (stereo unspecified) | 30.3 | 31.6 | 29.2 | 48.3 | 61.8 | 64.6 | 51.8 | 36.1 | > 100 |  |  |  |  |  |  |  |  |
| CSc1nc2ccccc2c(=O)n1/N=C1\C(=O)N(CN2CCCCC2)c2ccc(Cl)cc21 | 80.7 | 36 | > 100 | > 100 | > 100 | > 100 | 54.8 | > 100 | > 100 |  |  |  |  |  |  |  |  |
| COc1ccc(/C=C2\OC(=O)C(Cl)=C2c2ccc(OC)cc2)cc1 | > 100 | > 100 | 70.1 | > 100 |  | > 100 | > 100 | > 100 | > 100 | > 100 |  |  |  |  |  |  |  |
| Nc1ccn(C2CC(O)C(COP(O)(=S)OC3CC(n4ccc(N)nc4=O)OC3CO)O2)c(=O)n1 (stereo unspecified) | > 100 | > 100 | > 100 |  | > 100 | > 100 | > 100 | > 100 | > 100 | > 100 |  |  |  |  |  |  |  |
| CCOC(=O)/C(N=Nc1ccc(-n2c(C)nc3ccccc3c2=O)cc1)=C(/C)O | > 100 | > 100 | > 100 |  | > 100 | > 100 | 92.3 | > 100 | > 100 | > 100 |  |  |  |  |  |  |  |
| COC(=O)[C@H](Cc1ccccc1)NC(=O)NCCN(CCNC(=O)N[C@@H](Cc1ccccc1)C(=O)OC)C(=O)N[C@@H](Cc1ccccc1)C(=O)OC | 39.2 | 40.9 | 70 | 37.8 | 35.2 | 40.6 | 49.6 | 37.3 | 45.5 |  |  |  |  |  |  |  |  |
| CC1C2CC(CC(=O)N2)C1(C)C (stereo unspecified) | > 100 | > 100 | > 100 | > 100 | > 100 | > 100 | > 100 | > 100 | > 100 |  |  |  |  |  |  |  |  |
| O=c1c2cc(S(=O)(=O)Nc3ccccc3Cl)ccc2ncn1NS(=O)(=O)c1ccc(Br)cc1 | > 37.5 | > 37.5 | > 37.5 | > 37.5 | > 37.5 | > 37.5 |  | > 37.5 | > 37.5 | > 37.5 |  |  |  |  |  |  |  |
| Clc1cccc(Cl)c1C=NC12CC3CC(CC(C3)C1)C2 | > 10 | > 10 | > 10 | > 10 | > 10 | > 10 | > 10 | > 10 |  | > 10 |  |  |  |  |  |  |  |
| NC(=S)NNC(=O)/C(=C/c1ccc(/C=C(\NC(=O)c2ccccc2)C(=O)NNC(N)=S)cc1)NC(=O)c1ccccc1 |  | > 100 | > 100 | > 100 | > 100 |  |  | > 100 | > 100 | > 63 |  |  |  |  |  |  |  |
| COc1ccc(-c2ccc(-c3ccc(C(=N)N)nc3)s2)cc1 |  | 3.92 | 3.07 | 3.44 | 3.11 | 3.31 |  | 3.54 | 3.08 |  | 1.89 | 1.5 | 1.84 | 1.67 | 1.68 | 1.89 | 1.64 |
| CC1CC2OC(=O)C3CC(O)CC(=C23)[C@@]12C[C@@H](c1ccoc1)OC2=O (stereo partly specified) |  | > 100 | > 100 | > 100 | > 100 |  |  | > 100 | > 100 | > 100 |  |  |  |  |  |  |  |
| COc1cc2c(cc1OC)-c1[nH]c3ccc(C#N)cc3c1CC(=O)N2 | > 100 | 10.6 | > 100 | > 100 | > 24.7 | > 100 | > 100 | > 100 | > 22.6 |  |  |  |  |  |  |  |  |
| CCOC(=O)NC(C(F)(F)F)(C(F)(F)F)P(=O)(OC(C)C)OC(C)C | > 100 | > 100 |  | > 100 | > 100 | > 100 |  | > 100 | > 100 | > 100 |  |  |  |  |  |  |  |
| Cn1nc(Cc2ccc(Cl)cc2)n(N)c1=O | > 100 |  |  | > 100 | > 100 | > 100 | > 100 | > 100 | > 100 |  |  |  |  |  |  |  |  |
| COc1cc(S(=O)(=O)Nc2ccc(-c3csc(N4C(=O)CSC4c4cccs4)n3)cc2)ccc1Cl (stereo unspecified) | 70.5 | > 100 | > 100 | 70.6 | > 100 | > 100 |  |  | > 100 | > 100 |  |  |  |  |  |  |  |
| CC(C)OP(=O)(OC(C)C)C(C(C)C)N(C)/C(N)=N\C1=NC(C(F)(F)F)(C(F)(F)F)N=C(C(C(F)(F)F)C(F)(F)F)O1 (stereo unspecified) | 8.2 | 3.64 |  | 22.7 | 11.4 | 8.42 | 31.3 | 13.6 | 16 | 14.2 |  |  |  |  |  |  |  |
| CSC1=N[C@H](c2ccccc2)CS1 | > 100 | > 100 |  |  | > 100 | > 100 | > 100 | > 100 | > 100 |  |  |  |  |  |  |  |  |
| C=C1C(=O)C([Si](C)(C)C)=C2C=C(C)C3(CC3)C12C (stereo unspecified) | 55 | 36.4 |  | 78.7 | > 100 | 42.5 | > 100 | > 100 | > 100 | 11.7 |  |  |  |  |  |  |  |
| CC(C)c1ccccc1SC1CC(=O)CC(Sc2ccccc2C(C)C)C12O[C@H](c1ccccc1)[C@@H](c1ccccc1)O2 (stereo partly specified) | > 100 | > 100 | > 100 |  | > 100 | > 100 | 82.9 | > 100 |  |  |  |  |  |  |  |  |  |
| O=S(=O)([O-])[O-].[Fe+2].c1ccc(/C(=N\Nc2ccccn2)c2ccccn2)cc1 |  | 2.15 | 7.67 | 10.1 | 7.07 |  |  | 7.73 | 13.1 |  |  |  |  |  |  |  |  |
| O=P(O)(OCC(O)O)OCC(O)O |  | > 100 | > 100 | > 100 | > 100 |  |  | > 100 | > 100 |  |  |  |  |  |  |  |  |
| CC1=C/C(=N\OCC(=O)O)CC(c2ccc(C(C)C)cc2)C1 (stereo unspecified) |  | > 100 | > 100 | > 100 | > 100 | > 100 | > 100 |  |  | > 100 |  |  |  |  |  |  |  |
| O=C(c1ccc(Cl)cc1Cl)N(C(=O)N1CCC(c2ccccc2)CC1)c1ccccc1 | > 100 | > 100 | > 100 |  | > 100 | > 100 | > 100 |  | > 100 | > 100 |  |  |  |  |  |  |  |
| C/C(CN1C(=O)c2ccccc2C1=O)=N\NS(=O)(=O)c1ccc(Br)cc1 |  | > 100 | > 100 | > 100 | > 100 |  |  | > 100 | > 100 |  |  |  |  |  |  |  |  |
